{"source": "patent US20240316073A1", "about": "“CANNABIDIOLIC ACID ESTERS FOR TREATING PRADER-WILLI SYNDROME” (EPM (IP), Inc., priority 2021, published 2024)", "key": {"Magel2^null mice [1]": {"tested_on": "Magel2^null mice", "test": "PWS preventive model: Magel2-null mice on standard diet treated for 18 weeks", "format": "in vivo", "details": "STD diet, 20 mg/kg/day IP", "procedure": "The aim of the second study was to evaluate whether EPM301 treatment has an impact on body weight gain and adiposity in a mouse model of PWS.\nMale 6-week-old Magel2^null mice and their wild-type littermate controls were maintained under a 12-h light/dark cycle and fed ad libitum a standard laboratory diet (STD, 14% fat, 24% protein, 62% carbohydrates; NIH-31 rodent diet).\nMagel2^null mice were either treated with EPM301 20 mg/kg/day or with vehicle (1% Tween80, 4% DMSO, 95% Saline). WT siblings were treated with vehicle. All treatments were given for 18 weeks by intraperitoneal (IP) injections."}, "rat models": {"tested_on": "rat models", "details": "oral ingestion, 1 mg/kg, two rat models; cited from earlier work"}, "Magel2^null mice [2]": {"tested_on": "Magel2^null mice", "test": "Magel2-null mouse model of Prader-Willi Syndrome, HFD-induced obesity, CBDA-ME treatment", "format": "in vivo", "from_the_text": "A Magel2-null mice model of Prader-Willi Syndrome was used to examine the effects of CBDA-ME treatment.\n(§1) The experimental protocol used was approved by the Institutional Animal Care and Use Committee of the Hebrew University, Israel, which is an AAALAC International accredited institute. Male 6-week-old Magel2^null mice and their wild-type littermate controls were maintained under a 12-h light/dark cycle and fed ad libitum. To generate diet-induced obesity, the mice were fed either a high-fat diet (HFD) (60% of calories from fat, 20% from protein, and 20% from carbohydrates; Research Diet, D12492) or a standard laboratory diet (STD, 14% fat, 24% protein, 62% carbohydrates; NIH-31 rodent diet) for 14-16 weeks. Then, HFD-fed obese mice received vehicle (1% Tween80, 4% DMSO, 95% Saline) or CBDA-ME (20 or 40 mg/kg) daily for 28 days by intraperitoneal (ip) injections. Age-matched control mice on STD received vehicle daily.\n(§2) Body weight was monitored daily. Total body fat and lean masses were determined by EchoMRI-100H™ (Echo Medical Systems LLC, Houston, TX, USA). At weeks 20-22, the mice were euthanized by a cervical dislocation under deep anesthesia. The brain, kidneys, liver, fat pads, pancreas and muscles were removed, and the liver and kidney were also weighed. The samples were either snap-frozen or fixed in buffered 4% formalin. Trunk blood was collected for determining the biochemical parameters.\n(§3) Multi-parameter metabolic assessment—Metabolic profile of the mice was assessed by using the Promethion High-Definition Behavioral Phenotyping System (Sable Instruments, Inc., Las Vegas, NV, USA). Data acquisition and instrument control were performed using MetaScreen software version 2.2.18.0, and the obtained raw data were processed using ExpeData version 1.8.4 using an analysis script detailing all aspects of data transformation. Mice with free access to food and water (which were continuously measured) were subjected to a standard 12 h light/12 h dark cycle, which consisted of a 24 h acclimation period followed by 24 h of sampling. Respiratory gases were measured by using the GA-3 gas analyzer (Sable Systems, Inc., Las Vegas, NV, USA) using a pull-mode, negative-pressure system. Air flow was measured and controlled by FR-8 (Sable Systems, Inc., Las Vegas, NV, USA), with a set flow rate of 2000 mL/min. Water vapor was continuously measured and its dilution effect on O2 and CO2 was mathematically compensated. Effective body mass was calculated by ANCOVA. Fat oxidation (FO) and carbohydrate oxidation (CHO) were calculated as FO=1.69×VO2−1.69×VCO2 and CHO=4.57×VCO2−3.23×VO2 and expressed as g/d/kg^eff.Mass. […]\n(§4) Statistical Methods—Results in multiple groups and time-dependent variables were compared by ANOVA followed by Tukey post-hoc test. Significance was set at P<0.05 using the following signs: *P<0.05 relative to STD-Veh; #P<0.05 relative to HFD-Veh; ^P<0.05 relative to HFD-20 mg/kg of CBDA-ME.\n(§5) The metabolic profile of CBDA-ME was examined in mice with diet-and genetic-induced obesity (DIO, GIO). Male Magel2^null mice and their wild-type littermate controls fed a high-fat diet (HFD) for 14-16 weeks became obese and then started treatment with daily ip injections of vehicle, or CBDA-ME (20 mg/kg/d or 40 mg/kg/d) for 28 days. Age-and sex-matched mice on STD served as controls."}, "WT mice": {"tested_on": "WT mice", "test": "Wild-type littermate controls with HFD diet-induced obesity, CBDA-ME treatment", "format": "in vivo", "from_the_text": "as §1, §2, §3\nGlucose tolerance test (ipGTT) and insulin tolerance test (ipITT)-Mice that fasted overnight were injected with glucose (1.5 g/kg, ip), followed by a tail blood collection at 0, 15, 30, 45, 60, 90, and 120 minutes. Blood glucose levels were determined using the Contour glucometer (Bayer, Pittsburgh, PA). The following day, mice underwent fasting for 6 h before receiving insulin (0.75 U/kg, ip; Eli Lilly), and blood glucose levels were determined at the same intervals as above. […]\nas §4, §5"}, "rats [3]": {"tested_on": "rats", "details": "compared with CBDA, 5-HT1A receptor-dependent; cited from earlier work"}, "DIO mice": {"tested_on": "DIO mice", "test": "Serum biochemistry and hepatic lipid content in HFD-fed obese mice, genotype not distinguished (WT or PWS model)", "format": "in vivo", "from_the_text": "as §1\nBlood biochemistry—Serum levels of cholesterol, triglycerides (TG), high-density lipoprotein (HDL), low-density lipoprotein (LDL), glucose, alanine aminotransferase (ALT), aspartate aminotransferase (AST), and alkaline phosphatase (ALP) were determined using the Cobas C-111 chemistry analyzer (Roche, Switzerland). Fasting blood glucose was measured using the Contour glucometer.\nHepatic lipid content—Liver tissues were extracted and their triglyceride and cholesterol contents were determined using the Cobas C-111 chemistry analyzer (Roche, Switzerland) or the EnzyChrom™ Triglyceride assay kit (BioAssay Systems, Hayward CA, USA).\nHistopathology—First, 5 μm paraffin-embedded liver sections from 5 animals per group were stained with hematoxylin-eosin staining. Liver images were captured with a Zeiss AxioCam ICc5 color camera (Carl Zeiss AG, Jena, Germany) mounted on a Zeiss Axio Scope.A1 light microscope (Carl Zeiss AG, Jena, Germany) and taken from 10 random 40× fields of each animal.\nas §4"}, "rats [4]": {"tested_on": "rats", "details": "compared with CBDA, 5-HT1A receptor-dependent; cited from earlier work", "remark": "listed apart in the source"}, "[5]": {"details": "cited from earlier work"}, "[6]": {"details": "HFD-fed obese, 20 or 40 mg/kg/d ip, 28 days"}, "[7]": {"details": "20 or 40 mg/kg ip, 28 days, more prominent at the higher dose"}}, "note": "Entries after “also recorded” stand apart in the source; their conditions may differ."}
{"molecule": "C=C(C)C1CCC(C)=C[C@H]1c1c(O)cc(CCCCC)c(C(=O)OC)c1O", "note": "(some centres unmarked) [CBDA-ME, cannabidiolic acid methyl ester]", "values": [{"measurement": "change in the body weight versus WT controls and vehicle-treated Magel2^null mice", "setting": "Magel2^null mice [1]", "value": "significantly lower"}, {"measurement": "fat mass versus WT control mice", "setting": "Magel2^null mice [1]", "value": "similar"}, {"measurement": "lean mass versus WT control mice", "setting": "Magel2^null mice [1]", "value": "similar"}, {"measurement": "fat mass versus vehicle-treated Magel2^null mice", "setting": "Magel2^null mice [1]; listed as EPM301, 20 mg/kg/day", "value": "lower fat mass; also recorded: prevented"}, {"measurement": "lean mass versus vehicle-treated Magel2^null mice", "setting": "Magel2^null mice [1]; listed as EPM301, 20 mg/kg/day", "value": "significantly higher; also recorded: increased lean mass"}, {"measurement": "weight gain versus vehicle-treated Magel2^null mice", "setting": "Magel2^null mice [1]; listed as EPM301, 20 mg/kg/day", "value": "lower; also recorded: prevented weight gain"}, {"measurement": "anti-depressant effect", "setting": "rat models", "value": "potent anti-depressant effect"}, {"measurement": "food intake and hyperphagia", "setting": "Magel2^null mice [2]; HFD", "value": "inhibit; also recorded: significantly reduced"}, {"measurement": "reduced ambulatory activity", "setting": "Magel2^null mice [2]; HFD", "value": "restored"}, {"measurement": "increased adiposity", "setting": "Magel2^null mice [2]; [6]", "value": "reduced by CBDA-ME in both doses"}, {"measurement": "overweight (body weight)", "setting": "Magel2^null mice [2]; [6]", "value": "reduced by CBDA-ME in both doses; also recorded: significantly reduced; also recorded: effectively reduced"}, {"measurement": "insulin sensitivity (ipITT)", "setting": "Magel2^null mice [2]; HFD, 40 mg/kg", "value": "slightly improved"}, {"measurement": "obesity-induced glucose intolerance (ipGTT)", "setting": "Magel2^null mice [2]; HFD, 20 or 40 mg/kg", "value": "found effective in Magel2^null mice in both doses tested"}, {"measurement": "fasting blood glucose levels", "setting": "Magel2^null mice [2]; HFD, chronic treatment", "value": "reduced"}, {"measurement": "carbohydrate oxidation", "setting": "Magel2^null mice [2]; HFD, indirect calorimetry", "value": "downregulating"}, {"measurement": "fat oxidation", "setting": "Magel2^null mice [2]; HFD, indirect calorimetry", "value": "further upregulating"}, {"measurement": "food intake and hyperphagia", "setting": "WT mice; HFD", "value": "not observed"}, {"measurement": "reduced ambulatory activity", "setting": "WT mice; HFD", "value": "restored"}, {"measurement": "increased adiposity", "setting": "WT mice; [6]", "value": "only observed in the higher dose of 40 mg/kg"}, {"measurement": "overweight (body weight)", "setting": "WT mice; [6]", "value": "only observed in the higher dose of 40 mg/kg; also recorded: only the higher dose was found effective"}, {"measurement": "insulin sensitivity (ipITT)", "setting": "WT mice; HFD, 40 mg/kg", "value": "slightly improved"}, {"measurement": "obesity-induced glucose intolerance (ipGTT)", "setting": "WT mice; HFD, 40 mg/kg", "value": "this effect was observed"}, {"measurement": "lean body mass percentage", "setting": "WT mice; HFD, 40 mg/kg ip, 28 days", "value": "significant increase"}, {"measurement": "fasting blood glucose levels", "setting": "WT mice; HFD, chronic treatment", "value": "only in Magel2^null mice"}, {"measurement": "carbohydrate oxidation", "setting": "WT mice; HFD, indirect calorimetry", "value": "upregulated"}, {"measurement": "utilization of fat (fat oxidation)", "setting": "WT mice; HFD, indirect calorimetry", "value": "downregulated"}, {"measurement": "parameters measured overall", "setting": "WT mice; WT DIO mice, 40 mg/kg", "value": "improvements in almost all parameters measured"}, {"measurement": "suppressing signs of stress-induced anxiety", "setting": "rats [3]", "value": "greater potency than CBDA"}, {"measurement": "obesity related hepatocellular injury: serum ALT", "setting": "DIO mice; 40 mg/kg", "value": "reduction"}, {"measurement": "obesity related hepatocellular injury: serum AST", "setting": "DIO mice; 40 mg/kg", "value": "reduction"}, {"measurement": "serum HDL", "setting": "DIO mice; 20 or 40 mg/kg ip, 28 days", "value": "no effect"}, {"measurement": "HFD-induced hypercholesterolemia (serum cholesterol)", "setting": "DIO mice; [7]", "value": "reduced"}, {"measurement": "ratio between HDL-to-LDL", "setting": "DIO mice; [7]", "value": "increased"}, {"measurement": "serum LDL", "setting": "DIO mice; [7]", "value": "reduced"}, {"measurement": "ALP levels", "setting": "DIO mice; HFD", "value": "No major changes"}, {"measurement": "HFD-induced hepatic steatosis (hepatic triglyceride and cholesterol levels, fat vacuoles in the liver)", "setting": "DIO mice; HFD", "value": "attenuated"}, {"measurement": "suppressing signs of acute and anticipatory nausea", "setting": "rats [4]", "value": "greater potency than CBDA"}]}
{"molecule": "C=C(C)[C@@H]1CCC(C)=C[C@H]1c1c(O)cc(CCCCC)c(C(=O)O)c1O", "note": "[CBDA, cannabidiolic acid]", "values": [{"measurement": "stability (decarboxylation into CBD enhanced by heat)", "setting": "[5]", "value": "relative instability"}]}
